For one data set, the system named is erythema. Kind of data set: Anti-erythema activity by the Wilhelmi method, oral. The format is in vivo. Conditions: Cavia porcellus, Guinea pig. From the text: The anti-erythema activity was observed by the Wilhelmi method
[Wilhelmi,g.,(1949), Schweiz.Med.Wehnschr.,79, 577]. The anti-edema

The nature of a further data set: in vivo. The conditions noted are these: mouse, po. Here is the method: Arch. int. […] The toxicity was tested by the ora
administration of the tested compound to mice.

The compound `CC(C(=O)O)c1ccc(Oc2ccc(Cl)cc2)nc1` (stereo not drawn) [2-(2-p-Chlorophenoxy-5-pyridyl)-propionic acid] returned an ED50 with erythema of 19 mg/kg. This compound came in with an LD50 in the data set “in vivo” of 1150 mg/kg.
`CC(=O)Oc1ccccc1C(=O)O` [Aspirin, reference compound] had an ED50 with erythema of 79 mg/kg. This compound displayed an LD50 in “in vivo” of 2000 mg/kg.
In the case of `CC(C(=O)O)c1ccnc(Oc2ccccc2)c1` (stereo not drawn) [Calcium bis[2-(2-phenoxy-4-pyridyl)-propionate]], in the data set on erythema, the ED50 stood at 47 mg/kg. In the data set “in vivo”, this compound showed an LD50 of 2250 mg/kg.
With `CC(C(=O)O)c1ccc(Oc2ccccc2)nc1` (stereo not drawn) [Calcium bis[2-(2-phenoxy-5-pyridyl)-propionate]], it took a dose of 21 mg/kg to reach the 50% effect level with erythema (ED50). The LD50 in “in vivo” came to 1640 mg/kg.
`CCCCC1C(=O)N(c2ccccc2)N(c2ccccc2)C1=O` [Phenylbutazone, reference compound]: in the data set with erythema, the 50% effect level (ED50) was put at a dose of 26 mg/kg.

For the origin of these results see patent publication US3994908A, “Substituted acetic acid derivatives and production thereof” (Shionogi & Co., Ltd., priority 1972, dated 1976).
